The record followed here is patent publication US10875898B2, “Bioactive protein, use thereof and method for its production” (Koppert B.V., priority 2014, dated 2020).

The structures appear in SMILES notation.

One assay deals with Lotus japonicus. Nature of the assay: Rhizobium lotii on Lotus japonicus in vitro system, plant growth and nodule density. The class given is in vivo. The following applies: HYTLO1 0.07 μM, 6PP 0.002 μM, 4 weeks after seeding; for plant growth promotion effect of Rhizobia on Lotus japonicus: HA 0.001 μM in MS media; for nodule formation (number of nodules per cm of root): HA 0.001 μM, with R. loti. Here is the method: Wt+Rhz=treatment with R. loti, Wt-Rhz without R. loti. (D) Growth measured after 4 weeks, in the absence (cont) or presence of Rhizoba R. loti ((+) Rhiz). The purified molecules were added to the sterile MS media and poured into Petri dishes. Data were recorded 4 weeks after seeding of L. japonicus.
FIG. 18. […] (HYT=HYTLO1 at 0.07 μM, 6PP at 0.002 μM, HA=Harzianic Acid at 0.001 μM). Wt=control with R. loti without metabolites. The purified molecules were added to the sterile MS media and poured into Petri dishes. Average number of nodules per cm of root are indicated. Data were recorded 4 weeks after seeding of L. japonicus.
In order to test the effect of HYTLO1, as well as of the secondary metabolites HA and 6PP on the growth promotion activity of Rhizobia, such as Rhizobium sp., on legumimosae plants, we used a standard Rhizobium lotii on Lotus japonicus in vitro system (Barbulova et al., 2005, Functional Plant Biology, 32:529-536). Plant growth and nodule density on the roots were scored four weeks after seeding by comparing untreated controls and the various treatments.

The subject of another assay is cucumber. Nature of the assay: combined application of HYTLO1, HA and 6PP on cucumber seed germination and growth promotion. The class given is in vivo. On the set-up: Root length, increase % vs. Control / Plant fresh weight, increase % vs. Control / Plant dry weight, increase % vs. Control / plant height, increase % vs. Control: concentration or dose not given beside the values. The following applies: for Plant dry weight / Root length (cm) / Plant fresh weight / plant height (cm): 30 days after seed coating; for Plant dry weight: SD +− 1.3 g; for Root length (cm): SD +− 2.1 cm; for Plant fresh weight: SD +− 2.5 g; for plant height (cm): drench 10^−7M 6PP and HA, 10^−8M HYTLO1, half or one third dose in combinations, SD +− 2.5 cm; for Seed germination (24 h): coated cucumber seeds on humid filter paper, SD +− 9%. Here is the method:
Tested metabolites include 6PP and Harzianic Acid, and experiments were performed on seed germination, stem or root elongation as well fresh/dry weight. The results shown in Table 1 were obtained by using cucumber seeds coated with the solutions of the tested compounds, that were then transferred in Petri dishes and left to germinate on filter humid paper. First seed germination was evaluated, then the germinated seedlings were transplanted into pots containing sterilised soil. Other two treatments with the purified molecules were performed at 10 days interval, by drenching the soil with the solutions at the final concentrations of 10^−7M for 6PP and HA, and 10^−8M for HYTLO1. In two-compounds application, half dose of each molecule was used. In three-compound applications, one third of the dose of each molecules was used. Each treatments consisted of 8 plants. Results were collected 30 days after seed coating. Control was produced by adding water instead of the molecule solutions. The effect of the minimal amounts of solvents eventually contained in HA and 6PP solution was preliminary tested, with no differences observed in comparison to water control. The results shown in Table 1 that all of the three tested molecules have a significant beneficial effect on seed germination and plant growth, and that they can be synergistically combined for enhanced effectiveness.

As for `CCCCCc1cccc(=O)o1` [6PP, 6-Pentyl-α-pyrone], in the assay with Lotus japonicus, the “plant growth promotion effect of Rhizobia on Lotus japonicus” value is “Enhancement of the effect of Rhizobium lotii” and the “nodule formation (number of nodules per cm of root)” value is “Enhancement of nodule formation”. Besides, in the assay with cucumber, the “Plant dry weight” value was determined as 7.1 g, the “Root length (cm)” value was 17.6 cm, the “Plant fresh weight” value is listed as 22.04 g and the “plant height (cm)” value is given as 21.8 cm. The “Seed germination (24 h)” value in the assay on cucumber is on record as 75%. The “Seed germination (24 h), increase % vs. Control” value in the assay on cucumber (vs water control) was “+25%”. Besides, in the assay on cucumber (vs water control, 30 days), the “Plant dry weight, increase % vs. Control” value was determined as 42.3%; the “Plant fresh weight, increase % vs. Control” value amounted to 25.9%; the “Root length, increase % vs. Control” value was determined as 31.1%.
Take `CCC/C=C/C=C/C(O)=C1/C(=O)C(CC(O)(C(=O)O)C(C)C)N(C)C1=O` (centres unmarked) [HA, Harzianic acid]: in the assay with Lotus japonicus, the “plant growth promotion effect of Rhizobia on Lotus japonicus” value is listed as “Enhancement of the effect of Rhizobium lotii” and the “nodule formation (number of nodules per cm of root)” value is listed as “Enhancement of nodule formation”. Further, in the assay on cucumber, the “Plant dry weight” value was determined as 7.6 g, the “Root length (cm)” value was 13.6 cm, the “Plant fresh weight” value was found to be 23.36 g and the “plant height (cm)” value came out at 27.4 cm. Further, the “Seed germination (24 h)” value in the assay with cucumber is given as 75%. In addition, the “Seed germination (24 h), increase % vs. Control” value in the assay on cucumber (vs water control) is listed as “+25%”. In addition, in the assay on cucumber (vs water control, 30 days), the “Plant dry weight, increase % vs. Control” value amounted to 46.1%; the “Plant fresh weight, increase % vs. Control” value came out at 30.1%; the “Root length, increase % vs. Control” value was 10.7%; the “plant height, increase % vs. Control” value was found to be 8.4%.
